Source: PMC12903969, “Discovery of a Novel and Potent Kir4.1 Inhibitor as a Safe and Rapid‐Onset Antidepressant Agent in Mice” (Advanced Science, 2025)
“And” between values parts separate entries of the source, which are not always exact repeats. Identical values can stand only once. Like-named read-outs stand apart in the source and are kept apart here. Values belong to the compound of their own block, whether it stands above or below them.

Key:
mice [1] = test: Rotarod test (RT); assay type: in vivo; details: chronic 10 mg kg−1 per day
Experimental: The rotarod test was designed to evaluate the coordination and motor performance of rodents. The speed and time were set for the rod rotators. All experimental mice were allowed to adapt to a lower speed (5 rpm). For the formal test, the mice were placed on a rod spinning at 20 rpm, and the duration that the mice were able to hold on the rod at this speed was recorded. The maximum test duration was 20 min.

mice [2] = test: Treadmill test (TT); assay type: in vivo; details: chronic 10 mg kg−1 per day
Experimental: This test was designed to quantify locomotor endurance in rodents. The time (300 s) and speed (maximum: 30 rpm) parameters for the treadmill were set using a digital panel and the mice were placed in lanes. Gentle electrical probes (0.3 mA) served as motivational stimuli. Total distance traveled was automatically recorded using rotary encoder integration.

C57BL/6J mice [3] = test: Open field test (OFT) after chronic administration; assay type: in vivo; details: chronic 10 mg kg−1 per day
Experimental: This test was used to assess anxiety‐related behaviors in the mice. C57BL/6J mice were individually habituated to a 40 × 40 × 40 cm^3 open field arena under dim light for […]. Locomotor activity during the final 5 min was digitally recorded (30 fps) and analyzed using Tracking Master (Future Life Science (Shanghai) Co., Ltd., Shanghai, China). The primary endpoints included the total ambulatory distance (cm) and center‐zone exploration frequency (20 × 20 cm^2 central area).

C57BL/6J mice [4] = test: Novelty-suppressed feeding test (NSFT); assay type: in vivo
Experimental: The mice were individually housed in new cages and deprived of food for 24 h. The testing equipment was a brightly lit plastic box measuring 40 × 40 × 30 cm^3 with a light intensity of 1100–1200 lux. Each mouse was positioned in a corner of the device with one food pellet located at the center. The latency to start chewing food was recorded within 5 min. Immediately thereafter, the mice were placed back in their home cage with pre‐measured food, and the amount consumed in the next 5 min was used as a baseline to account for appetite changes that might affect the outcome.

mice [5] = test: Shuttle box test (SBT); assay type: in vivo
Experimental: This test was designed to measure learning and memory function in rodents. The shuttle box consists of two compartments connected by a freely passable gate. The mice were allowed to explore the test chamber freely for 5 min before the test to eliminate exploratory reflexes. Each mouse was placed in one compartment of the shuttle box. The conditioning protocol began with a 5‐s conditioned stimulus presentation of light (200 lux) and auditory tone (100 dB, 1000 Hz), followed immediately by a 3‐s footshock (300 µA) unconditioned stimulus. Escape to the opposite compartment during the conditioned stimulus presentation was scored as an active avoidance response, whereas escape occurring only after shock onset was recorded as […]. […] Each test session consisted of 40 trials with 10‐s inter‐trial intervals, with the number of active avoidance responses systematically recorded.

mice [6] = test: Y-maze; assay type: in vivo; details: chronic 10 mg kg−1 per day
Experimental: This test was designed to evaluate spatial working memory. Briefly, mice were individually placed in a symmetrical Y‐maze and allowed to explore for 8 min. Entries were counted only when both hind paws crossed the arm threshold. Correct spatial alternation was defined as an entry into all three arms in an uninterrupted sequence (e.g., ABC, BCA or CAB each representing one alternation). The alternation percentage was derived as: [correct alternations/(total entries–2)] × 100%. After each session, the walls and floor of the maze were wiped with 75% ethanol and allowed to dry before the next animal was tested.

mice [7] = test: 21-day chronic administration: body weight, organ weight, serum biochemistry
[8] = system: primary cortical astrocytes (native Kir4.1 channels); test: Patch clamp of primary cultured WT astrocytes (native Kir4.1); assay type: cell-based, mouse; details: JX3212 3 µM; BaCl2 100 µM
Experimental: Astrocytes were isolated and cultured as previously described.^[ [16] ^] Briefly, the cortices from P1‐P4 mouse pups were dissected and incubated for 25 min in Hank's Balanced Salt Solution (22.5 ml) with 2.5% trypsin (2.5 ml) at 37 °C. Cells were dissociated in cultured medium (DMEM/F12 supplemented with 10% fetal bovine serum and 1% penicillin and streptomycin) and filtered with a 70‐µm cell strainer. Cell suspensions were cultured in PDL‐pretreated 75‐cm^2 flasks for the initial seven days, with half of the medium replaced every 2 days. Subsequently, the cultures were shaken at 220 rpm for 6 h at 37 °C to remove microglia and oligodendrocytes from the astrocyte layers. The astrocytes were harvested, reseeded in two new flasks, and cultured in an incubator for 14 days. For Kir4.1 deletion in cell cultures, 4‐OH tamoxifen (final concentration: 1 µM, Felixbio) was added into Kir4.1^flox/flox: Aldh1l1‐Cre/ERT2 cortical cultures at DIV 2 and DIV 4, respectively, and completely removed at DIV7 when astrocytes were reseeded in fresh culture medium.
Whole‐cell patch‐clamp recordings were obtained either in transiently transfected CHO‐K1 cells or in primary cultured astrocytes at room temperature using standard patch‐clamp techniques with an Axopatch‐700B amplifier (Axon Instruments). The signals were filtered at 2 kHz and sampled at 20 kHz using the Digidata 1440A interface (Axon Instruments). The resistance of borosilicate glass pipettes was typically 2–4 MΩ when filled with the internal solution. Drug application was facilitated using a BPS perfusion system (ALA Scientific Instruments). Macroscopic currents generated by expressed potassium channels were recorded under the voltage‐clamp conditions with an internal pipette solution composed of (in mM): 140 KCl, 5 NaCl, 1 CaCl2, 1 MgCl2, 10 HEPES, and 10 EGTA, pH 7.2 adjusted with KOH. The external solution contained (in mM): 140 NaCl, 5 KCl, 2 CaCl2, 1 MgCl2, 10 glucose, and 10 HEPES, pH 7.4 adjusted with NaOH. Currents were elicited with a hyperpolarized voltage at −120 mV from the holding potential of −80 mV, followed by a ramp voltage depolarizing to +50 mV. Astrocytic resting membrane potentials were recorded under current‐clamp conditions (I = 0 pA) using standard internal and external solutions, determined immediately after achieving whole‐cell mode.

Kir4.1 = molecular target: T1, Kir4.1 (Homo sapiens, UniProt P78508); test: Whole-cell patch clamp, Kir4.1 currents in transfected CHO-K1 cells; assay type: cell-based; details: for inhibition at 1 µM: CHO-K1, 1 μM; for inhibition at 10 µM: CHO-K1, 10 μM
T1 construct: host or cells: CHO-K1
T1 sequence (P78508 1-379): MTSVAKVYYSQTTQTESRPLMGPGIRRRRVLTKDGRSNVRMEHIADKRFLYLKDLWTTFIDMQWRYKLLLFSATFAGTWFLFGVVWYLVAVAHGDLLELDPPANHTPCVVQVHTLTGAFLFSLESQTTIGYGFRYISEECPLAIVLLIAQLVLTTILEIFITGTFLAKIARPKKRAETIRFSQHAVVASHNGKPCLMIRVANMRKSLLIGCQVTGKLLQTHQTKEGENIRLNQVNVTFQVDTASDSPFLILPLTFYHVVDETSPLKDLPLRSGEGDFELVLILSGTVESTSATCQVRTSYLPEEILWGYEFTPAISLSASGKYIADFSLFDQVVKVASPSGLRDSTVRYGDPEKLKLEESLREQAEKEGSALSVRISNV
How it was run: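 Transiently transfected CHO-K1 cells (with EGFP), whole-cell voltage clamp at room temperature; pipette 140 mM KCl pH 7.2, bath 140 mM NaCl/5 mM KCl pH 7.4. Currents evoked from −80 mV holding by a step to −120 mV then ramp to +50 mV; compounds applied by perfusion.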

[9] = system: MDA-MB-468 breast cancer cells; test: Cytotoxicity test (CCK-8); assay type: cell-based; details: Homo sapiens, MDA-MB-468, MDA-MB-468 breast cancer cells; read-out: IC50 ± SD (μM) for MDA-MB-468 Inhibition
How it was run: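 Cells seeded at 12,000/well in L15 for 24 h, then exposed 48 h to compounds at 0.41-100.00 µM (DMSO <0.4%). Viability by 10% CCK-8, 2 h at 37 °C, absorbance 450 nm, expressed as percent of control.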

[10] = serum, 10 mg/kg, 21-day chronic administration, individual animals
[11] = +50 mV, read-out: Kir4.1 Inhibition ± SD (%) at 10 μM, +50 mV
[12] = -120 mV, read-out: Kir4.1 Inhibition ± SD (%) at 10 μM, -120 mV

- treadmill running distance vs vehicle (in words) (mice [2]): notably reduced
- OFT total and central distance traveled (in words) (C57BL/6J mice [3]): no pronounced differences
- food intake in home cage after NSFT (in words) (C57BL/6J mice [4]; repeated administration, vs vehicle): significant increase in food intake
- shuttle box active avoidance responses (in words) (mice [5]; chronic 10 mg kg−1 per day): no significant differences
- SBT active avoidance responses, single mice (mice [5]; chronic 10 mg/kg per day (Fig 5G)): 27 and 32 and 29 and 20 and 23 and 22
- Y-maze alternation percentage vs vehicle (in words) (mice [6]): significantly reduced
SMILES: CN(C)CCCN1c2ccccc2CCc2ccccc21 [imipramine]
- rotarod falling latency vs vehicle (in words) (mice [1]): notably reduced falling latency
- NSFT antidepressant-like effect (in words) (C57BL/6J mice [4]; imipramine 15 mg kg−1, single administration): failed to produce antidepressant‐like effects
- NSFT antidepressant-like response after repeated administration (in words) (C57BL/6J mice [4]; seven days, imipramine 15 mg kg−1, JX3212 3/10 mg kg−1): elicited significant antidepressant‐like responses
- body weight during 21-day chronic administration (in words) (mice [7]; 10 mg kg−1 per day, vs vehicle): marked increase in body weight
- Body weight (mice [7]; 10 mg/kg, day 7, individual animals): 24.5 (2×) and 25.5 (2×) and 25.8 and 25.3 and 24.2 and 25.4 and 24.9 and 26
- Body weight (mice [7]; 10 mg/kg, day 8, individual animals): 25.5 and 24.5 and 24.8 (2×) and 26.1 and 24.4 and 25.3 (2×) and 26.2 and 25.8
- Body weight (mice [7]; 10 mg/kg, day 9, individual animals): 26.3 and 25.3 (2×) and 26 and 25.4 and 25.8 and 26.4 and 24.8 and 25 and 24.6
- Body weight (mice [7]; 10 mg/kg, day 10, individual animals): 26.1 and 26 (2×) and 25.3 (3×) and 25.5 and 25.2 and 26.3 and 24.9
- Body weight (mice [7]; 10 mg/kg, day 11, individual animals): 26.1 (2×) and 25.7 (2×) and 24.8 and 24.6 and 24.4 and 25.4 and 26 and 24.7
- Body weight (mice [7]; 10 mg/kg, day 12, individual animals): 26.1 and 26.9 and 25 (2×) and 27.4 and 25.8 (2×) and 26.2 and 24.9 and 26.6
- Body weight (mice [7]; 10 mg/kg, day 13, individual animals): 25.3 (3×) and 26.2 and 26.5 and 27.2 and 26.4 and 27.3 and 25.6 (2×)
- Body weight (mice [7]; 10 mg/kg, day 14, individual animals): 25.3 and 25.8 and 26.8 (2×) and 25.7 and 26.7 and 27.4 and 26.6 and 26.4 and 27.1
- Body weight (mice [7]; 10 mg/kg, day 15, individual animals): 27.1 and 25.5 and 25.4 and 25.6 and 26.4 (2×) and 25.8 and 27.3 and 26.3 and 26
- Body weight (mice [7]; 10 mg/kg, day 16, individual animals): 27.2 (2×) and 26.3 and 26.5 and 25.8 and 26.7 and 25.4 and 26.1 and 26.9 and 25.7
- serum alanine aminotransferase level (in words) (mice [7]; 21-day administration): significant increase in alanine aminotransferase levels
- serum aspartate aminotransferase and urea levels (in words) (mice [7]; 21-day administration): comparable
- serum creatinine level (in words) (mice [7]; 21-day administration): marked decreases in creatinine levels
- ALT (mice [7]; [10]): 39 and 34 and 31 and 33 and 48 and 37 and 52 and 40
- AST (mice [7]; [10]): 151 and 169 and 124 and 111 and 168 and 222 and 112 and 198 and 207
- Cr (mice [7]; [10]): 19 and 18 and 20 and 23 and 22

SMILES: [Ba+2].[Cl-].[Cl-] [BaCl2, reference compound]
- astrocytic resting membrane potential (in words) [8]: marked depolarization

- inhibition at 1 µM (Kir4.1; +50 mV, read-out: Kir4.1 Inhibition ± SD (%) at 1 μM, +50 mV): 53.2 ± 3.51%
- inhibition at 1 µM (Kir4.1; -120 mV, read-out: Kir4.1 Inhibition ± SD (%) at 1 μM, -120 mV): 36.4 ± 5.31%
- inhibition at 10 µM (Kir4.1; [11]): 96 ± 2.25%
- inhibition at 10 µM (Kir4.1; [12]): 90.9 ± 4.5%
SMILES: c1ccc2c(c1)oc1ccc(Nc3ccnc(NCCCN4CCCC4)n3)cc12 [JX3239, N^4-(dibenzo[b,d]furan-2-yl)-N^2-(3-(pyrrolidin-1-yl)propyl)pyrimidine-2,4-diamine]
- IC50 [9]: 11.1 ± 0.81 µM

- inhibition at 10 µM (Kir4.1; [11]): 5.73 ± 2.33%
- inhibition at 10 µM (Kir4.1; [12]): 0.47 ± 2.29%
SMILES: c1ccc(Nc2ccnc(NCCCN3CCOCC3)n2)cc1 [JX3204, N^2-(3-morpholinopropyl)-N^4-phenylpyrimidine-2,4-diamine]
- IC50 [9]: > 50 µM
